Assay results taken from US12077503B2, “Substituted cyclic amides and their use as herbicides” (FMC CORPORATION, priority 2015, dated 2024).

Tests used:
Format in all cases: in vivo
[1] = test system: ivy-leaved morning glory (Ipomoea hederacea); test: Test G Pre-Emergence Protocol; details: Ipomoea, pre-emergence, 312 h, evaluated after 13 days; for pest or weed control at 15.625 g/ha: 15.625 g ai/ha; for pest or weed control at 15.625 g/ha / pest or weed control at 250 g/ha: read-out: Morningglory, Ivy-leaved damage rating (100=total damage to plant; 0=no damage to plant); for pest or weed control at 62.5 g/ha: 62.5 g ai/ha, 100=total damage to plant, 0=no damage to plant, read-out: Morningglory, Ivy-leaved damage rating; for pest or weed control at 250 g/ha: 250 g ai/ha
Summary of the method: (§1)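 Herbicidal effect was rated 13 days post-application on a scale where 100 equals total damage. Spraying took place the day after sowing, using 15.625, 62.5 or 250 g/ha of compound in a 50:50 acetone/water solution with 0.5% Tween 20.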

[2] = test system: giant foxtail (Setaria faberi); test: Test G Pre-Emergence Protocol; details: Setaria faberi, pre-emergence, 312 h, evaluated after 13 days; for pest or weed control at 15.625 g/ha: 15.625 g ai/ha; for pest or weed control at 15.625 g/ha / pest or weed control at 250 g/ha: read-out: Foxtail, Giant damage rating (100=total damage to plant; 0=no damage to plant); for pest or weed control at 62.5 g/ha: 62.5 g ai/ha, 100=total damage to plant, 0=no damage to plant, read-out: Foxtail, Giant damage rating; for pest or weed control at 250 g/ha: 250 g ai/ha
Summary of the method: as §1

[3] = test system: redroot pigweed (Amaranthus retroflexus); test: Test G Pre-Emergence Protocol; details: Amaranthus retroflexus, pre-emergence, 312 h, evaluated after 13 days; for pest or weed control at 15.625 g/ha: 15.625 g ai/ha; for pest or weed control at 15.625 g/ha / pest or weed control at 250 g/ha: read-out: Pigweed, Redroot damage rating (100=total damage to plant; 0=no damage to plant); for pest or weed control at 62.5 g/ha: 62.5 g ai/ha, 100=total damage to plant, 0=no damage to plant, read-out: Pigweed, Redroot damage rating; for pest or weed control at 250 g/ha: 250 g ai/ha
Summary of the method: as §1

[4] = test system: corn (Zea mays); test: Test G Pre-Emergence Protocol; details: Zea mays, pre-emergence, 312 h, evaluated after 13 days; for plant injury at 15.625 g/ha: 15.625 g ai/ha; for plant injury at 15.625 g/ha / plant injury at 250 g/ha: read-out: Corn damage rating (100=total damage to plant; 0=no damage to plant); for plant injury at 62.5 g/ha: 62.5 g ai/ha, 100=total damage to plant, 0=no damage to plant, read-out: Corn damage rating; for plant injury at 250 g/ha: 250 g ai/ha
Summary of the method: as §1

[5] = test system: velvetleaf (Abutilon theophrasti); test: Test G Pre-Emergence Protocol; details: Abutilon theophrasti, pre-emergence, 312 h, evaluated after 13 days; for pest or weed control at 15.625 g/ha: 15.625 g ai/ha; for pest or weed control at 15.625 g/ha / pest or weed control at 250 g/ha: read-out: Velvetleaf damage rating (100=total damage to plant; 0=no damage to plant); for pest or weed control at 62.5 g/ha: 62.5 g ai/ha, 100=total damage to plant, 0=no damage to plant, read-out: Velvetleaf damage rating; for pest or weed control at 250 g/ha: 250 g ai/ha
Summary of the method: as §1

[6] = test system: barnyardgrass (Echinochloa crus-galli); test: Test G Pre-Emergence Protocol; details: Echinochloa crus-galli, pre-emergence, 312 h, evaluated after 13 days; for pest or weed control at 15.625 g/ha: 15.625 g ai/ha; for pest or weed control at 15.625 g/ha / pest or weed control at 250 g/ha: read-out: Barnyardgrass damage rating (100=total damage to plant; 0=no damage to plant); for pest or weed control at 62.5 g/ha: 62.5 g ai/ha, 100=total damage to plant, 0=no damage to plant, read-out: Barnyardgrass damage rating; for pest or weed control at 250 g/ha: 250 g ai/ha
Summary of the method: as §1

[7] = test system: ivy-leaved morning glory (Ipomoea hederacea); test: Test G Post-Emergence Protocol; details: Ipomoea, post-emergence, 312 h, read-out: Morningglory, Ivy-leaved damage rating; for pest or weed control at 15.625 g/ha: 15.625 g ai/ha, evaluated after 13 days (100=total damage to plant; 0=no damage to plant); for pest or weed control at 62.5 g/ha: 62.5 g ai/ha; for pest or weed control at 62.5 g/ha / pest or weed control at 250 g/ha: evaluated after 13 days, 100=total damage to plant, 0=no damage to plant; for pest or weed control at 250 g/ha: 250 g ai/ha
Summary of the method: (§2)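 Sow in soil; grow 8 d (24/16 °C, 14 h light, 65% humidity); spray 15.625/62.5/250 g/ha in acetone:water 50:50 + 0.5% Tween 20; grow on, water twice daily; score damage 0–100 at 13 d.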

[8] = test system: giant foxtail (Setaria faberi); test: Test G Post-Emergence Protocol; details: Setaria faberi, post-emergence, 312 h, read-out: Foxtail, Giant damage rating; for pest or weed control at 15.625 g/ha: 15.625 g ai/ha, evaluated after 13 days (100=total damage to plant; 0=no damage to plant); for pest or weed control at 62.5 g/ha: 62.5 g ai/ha; for pest or weed control at 62.5 g/ha / pest or weed control at 250 g/ha: evaluated after 13 days, 100=total damage to plant, 0=no damage to plant; for pest or weed control at 250 g/ha: 250 g ai/ha
Summary of the method: as §2

[9] = test system: redroot pigweed (Amaranthus retroflexus); test: Test G Post-Emergence Protocol; details: Amaranthus retroflexus, post-emergence, 312 h, read-out: Pigweed, Redroot damage rating; for pest or weed control at 15.625 g/ha: 15.625 g ai/ha, evaluated after 13 days (100=total damage to plant; 0=no damage to plant); for pest or weed control at 62.5 g/ha: 62.5 g ai/ha; for pest or weed control at 62.5 g/ha / pest or weed control at 250 g/ha: evaluated after 13 days, 100=total damage to plant, 0=no damage to plant; for pest or weed control at 250 g/ha: 250 g ai/ha
Summary of the method: as §2

[10] = test system: corn (Zea mays); test: Test G Post-Emergence Protocol; details: Zea mays, post-emergence, 312 h, read-out: Corn damage rating; for plant injury at 15.625 g/ha: 15.625 g ai/ha, evaluated after 13 days (100=total damage to plant; 0=no damage to plant); for plant injury at 62.5 g/ha: 62.5 g ai/ha; for plant injury at 62.5 g/ha / plant injury at 250 g/ha: evaluated after 13 days, 100=total damage to plant, 0=no damage to plant; for plant injury at 250 g/ha: 250 g ai/ha
Summary of the method: as §2

[11] = test system: velvetleaf (Abutilon theophrasti); test: Test G Post-Emergence Protocol; details: Abutilon theophrasti, post-emergence, 312 h, read-out: Velvetleaf damage rating; for pest or weed control at 15.625 g/ha: 15.625 g ai/ha, evaluated after 13 days (100=total damage to plant; 0=no damage to plant); for pest or weed control at 62.5 g/ha: 62.5 g ai/ha; for pest or weed control at 62.5 g/ha / pest or weed control at 250 g/ha: evaluated after 13 days, 100=total damage to plant, 0=no damage to plant; for pest or weed control at 250 g/ha: 250 g ai/ha
Summary of the method: as §2

[12] = test system: barnyardgrass (Echinochloa crus-galli); test: Test G Post-Emergence Protocol; details: Echinochloa crus-galli, post-emergence, 312 h, read-out: Barnyardgrass damage rating; for pest or weed control at 15.625 g/ha: 15.625 g ai/ha, evaluated after 13 days (100=total damage to plant; 0=no damage to plant); for pest or weed control at 62.5 g/ha: 62.5 g ai/ha; for pest or weed control at 62.5 g/ha / pest or weed control at 250 g/ha: evaluated after 13 days, 100=total damage to plant, 0=no damage to plant; for pest or weed control at 250 g/ha: 250 g ai/ha
Summary of the method: as §2

With `CN1C[C@@H](c2cccc(C(F)(F)F)c2)[C@H](C(=O)Nc2cccnc2F)C1=O` [Compound 1823] the pest or weed control at 15.625 g/ha [1] was 0%, the pest or weed control at 62.5 g/ha [1] was 0% and the pest or weed control at 250 g/ha [1] was 0%. For the same molecule, the pest or weed control at 15.625 g/ha [2] was 0%, the pest or weed control at 62.5 g/ha [2] was 0% and the pest or weed control at 250 g/ha [2] was 0%. It also gave a pest or weed control at 15.625 g/ha [3] of 0%, a pest or weed control at 62.5 g/ha [3] of 0% and a pest or weed control at 250 g/ha [3] of 0%. It also gave a plant injury at 15.625 g/ha [4] of 0%, a plant injury at 62.5 g/ha [4] of 0% and a plant injury at 250 g/ha [4] of 0%. For the same molecule, the pest or weed control at 15.625 g/ha [5] was 0%, the pest or weed control at 62.5 g/ha [5] was 0% and the pest or weed control at 250 g/ha [5] was 0%. The pest or weed control at 15.625 g/ha [6] was 0%, the pest or weed control at 62.5 g/ha [6] was 0% and the pest or weed control at 250 g/ha [6] was 0%. The pest or weed control at 15.625 g/ha [7] was 0%, the pest or weed control at 62.5 g/ha [7] was 0% and the pest or weed control at 250 g/ha [7] was 0%. It also gave a pest or weed control at 15.625 g/ha [8] of 0%, a pest or weed control at 62.5 g/ha [8] of 0% and a pest or weed control at 250 g/ha [8] of 0%. The pest or weed control at 15.625 g/ha [9] was 0%, the pest or weed control at 62.5 g/ha [9] was 0% and the pest or weed control at 250 g/ha [9] was 0%. The plant injury at 15.625 g/ha [10] was 0%, the plant injury at 62.5 g/ha [10] was 0% and the plant injury at 250 g/ha [10] was 0%. For the same molecule, the pest or weed control at 15.625 g/ha [11] was 0%, the pest or weed control at 62.5 g/ha [11] was 0% and the pest or weed control at 250 g/ha [11] was 0%. It also gave a pest or weed control at 15.625 g/ha [12] of 0%, a pest or weed control at 62.5 g/ha [12] of 0% and a pest or weed control at 250 g/ha [12] of 0%.

With `CN1C[C@H](c2cc(C(F)(F)F)cc(C(F)(F)F)c2)[C@@H](C(=O)Nc2ccccc2S(C)(=O)=O)C1=O` (racemic) [Compound 1794] the pest or weed control at 15.625 g/ha [1] was 0%, the pest or weed control at 62.5 g/ha [1] was 0% and the pest or weed control at 250 g/ha [1] was 10%. For the same molecule, the pest or weed control at 15.625 g/ha [2] was 30%, the pest or weed control at 62.5 g/ha [2] was 60% and the pest or weed control at 250 g/ha [2] was 90%. For the same molecule, the pest or weed control at 15.625 g/ha [3] was 0%, the pest or weed control at 62.5 g/ha [3] was 0% and the pest or weed control at 250 g/ha [3] was 80%. The plant injury at 15.625 g/ha [4] was 30%, the plant injury at 62.5 g/ha [4] was 50% and the plant injury at 250 g/ha [4] was 80%. The pest or weed control at 15.625 g/ha [5] was 0%, the pest or weed control at 62.5 g/ha [5] was 0% and the pest or weed control at 250 g/ha [5] was 0%. It also gave a pest or weed control at 15.625 g/ha [6] of 0%, a pest or weed control at 62.5 g/ha [6] of 40% and a pest or weed control at 250 g/ha [6] of 80%. The pest or weed control at 15.625 g/ha [7] was 20%, the pest or weed control at 62.5 g/ha [7] was 50% and the pest or weed control at 250 g/ha [7] was 70%. The pest or weed control at 15.625 g/ha [8] was 0%, the pest or weed control at 62.5 g/ha [8] was 60% and the pest or weed control at 250 g/ha [8] was 80%. It also gave a pest or weed control at 15.625 g/ha [9] of 0%, a pest or weed control at 62.5 g/ha [9] of 40% and a pest or weed control at 250 g/ha [9] of 70%. For the same molecule, the plant injury at 15.625 g/ha [10] was 20%, the plant injury at 62.5 g/ha [10] was 50% and the plant injury at 250 g/ha [10] was 70%. For the same molecule, the pest or weed control at 15.625 g/ha [11] was 0%, the pest or weed control at 62.5 g/ha [11] was 0% and the pest or weed control at 250 g/ha [11] was 10%. It also gave a pest or weed control at 15.625 g/ha [12] of 0%, a pest or weed control at 62.5 g/ha [12] of 40% and a pest or weed control at 250 g/ha [12] of 70%.
